In ChEMBL document CHEMBL6087397, “H2S-releasing oridonin derivatives with improved antitumor activity by inhibiting the PI3K/AKT pathway” (Bioorg Med Chem, 2024):
The source made the active and inactive calls. The rule behind the calls is not given here.

Columns and labels:
MIA PaCa-2 [1] = experiment: Induction of apoptosis in human MIA PaCa-2 cells assessed as increase in nuclear fragmentation at 2.5 uM incubated for 48 hrs by Hoechst 33342 staining based fluorescence microscopic analysis; assay type: functional, cell-based
MCF7 [2] = experiment: Antiproliferative activity against human MCF7 cells assessed as inhibition of cell proliferation incubated for 48 hrs by CCK-8 assay; assay type: functional, cell-based; settings: MCF7, 48 h
MCF7 [3] = experiment: Inhibition of cell migration in human MCF7 cells assessed as wider scratch areas incubated for 48 hrs by scratch assay; assay type: functional, cell-based; settings: dose 0.5-1 µM
MIA PaCa-2 [4] = experiment: Inhibition of AKT expression in human MIA PaCa-2 cells at 1.25 to 5.0 uM incubated for 48 hrs by Western blotting analysis; assay type: functional, cell-based; settings: dose 1.25-5 µM
4T1 = experiment: Antitumor activity against mouse 4T1 cells xenografted in female BALB/c mouse assessed as reduction in tumor volume at 10 mg/kg, ip administered every 2 days; assay type: functional, organism-based
MIA PaCa-2 [5] = experiment: Antiproliferative activity against human MIA PaCa-2 cells assessed as inhibition of cell proliferation incubated for 48 hrs by CCK-8 assay; assay type: functional, cell-based; settings: MIA PaCa-2, 48 h
A549 = experiment: Antiproliferative activity against human A549 cells assessed as inhibition of cell proliferation incubated for 48 hrs by CCK-8 assay; assay type: functional, cell-based; settings: A549, 48 h
MCF7 [6] = experiment: Inhibition of colony formation in human MCF7 cells assessed as reduction in number of colonies at 1.0 to 2.0 uM incubated for […] by crystal violet staining based microscopic analysis; assay type: functional, cell-based; settings: dose 1-2 µM
[7] = Toxicity in female BALB/c mouse xenografted with mouse 4T1 cells assessed as change in body weight at 10 mg/kg, ip administered every 2 days; assay type: organism-based; settings: in vivo, 48 h
[8] = Toxicity in female BALB/c mouse xenografted with mouse 4T1 cells assessed as morphological change in spleen at 10 mg/kg, ip administered every 2 days by H and E staining based analysis; assay type: organism-based; settings: in vivo, 48 h
MIA PaCa-2 [9] = experiment: Induction of apoptosis in human MIA PaCa-2 cells assessed as upregulation of Cyt-C expression at 1.25 to 5.0 uM incubated for 48 hrs by Western blotting analysis; assay type: functional, cell-based; settings: dose 1.25-5 µM
MIA PaCa-2 [10] = experiment: Induction of cell cycle arrest in human MIA PaCa-2 cells assessed as increase in accumulation of cells at S phase at 2.5 uM incubated for 48 hrs by PI staining based flow cytometric analysis (reference value: 9.38%); assay type: functional
MCF7 [11] = experiment: Induction of apoptosis in human MCF7 cells assessed as increase in cleaved caspase-9 level at 1.25 to 5.0 uM incubated for 48 hrs by Western blotting analysis; assay type: functional, cell-based; settings: dose 1.25-5 µM
MIA PaCa-2 [12] = experiment: Inhibition of PI3K expression in human MIA PaCa-2 cells at 1.25 to 5.0 uM incubated for 48 hrs by Western blotting analysis; assay type: functional, cell-based; settings: dose 1.25-5 µM
MIA PaCa-2 [13] = experiment: Induction of cell cycle arrest in human MIA PaCa-2 cells assessed as increase in accumulation of cells at S phase at 5.0 uM incubated for 48 hrs by PI staining based flow cytometric analysis (reference value: 9.38%); assay type: functional
MCF7 [14] = experiment: Induction of apoptosis in human MCF7 cells assessed as increase in Cyt-C level at 1.25 to 5.0 uM incubated for 48 hrs by Western blotting analysis; assay type: functional, cell-based; settings: dose 1.25-5 µM
MCF7 [15] = experiment: Induction of apoptosis in human MCF7 cells assessed as increase in cleaved PARP level at 1.25 to 5.0 uM incubated for 48 hrs by Western blotting analysis; assay type: functional, cell-based; settings: dose 1.25-5 µM
MIA PaCa-2 [16] = experiment: Inhibition of cell migration in human MIA PaCa-2 cells assessed as wider scratch areas at 0.5 to 1.0 uM incubated for 48 hrs by scratch assay; assay type: functional, cell-based; settings: dose 0.5-1 µM
[17] = Toxicity in female BALB/c mouse xenografted with mouse 4T1 cells assessed as morphological change in lung at 10 mg/kg, ip administered every 2 days by H and E staining based analysis; assay type: organism-based; settings: in vivo, 48 h
MCF7 [18] = experiment: Induction of mitochondrial dysfunction in human MCF7 cells assessed as decrease in MMP level at 2.5 to 5.0 uM by measuring green fluorescence incubated for 48 hrs by JC-1 staining based flow cytometric analysis; assay type: functional, cell-based; settings: dose 2.5-5 µM
MCF7 [19] = experiment: Induction of apoptosis in human MCF7 cells assessed as upregulation of Bax/Bcl-2 ratio at 1.25 to 5.0 uM incubated for 48 hrs by Western blotting analysis; assay type: functional, cell-based; settings: dose 1.25-5 µM
[20] = Toxicity in female BALB/c mouse xenografted with mouse 4T1 cells assessed as morphological change in liver at 10 mg/kg, ip administered every 2 days by H and E staining based analysis; assay type: organism-based; settings: in vivo, 48 h
MCF7 [21] = experiment: Inhibition of cell invasion in human MCF7 cells assessed as decrease in number of invading cells at 0.5 to 1.0 uM incubated for 48 hrs by crystal violet staining based transwell microscopic analysis; assay type: functional; settings: dose 0.5-1 µM
MIA PaCa-2 [22] = experiment: Induction of apoptosis in human MIA PaCa-2 cells assessed as increase in fluorescence intensity at 2.5 uM incubated for 48 hrs by Hoechst 33342 staining based fluorescence microscopic analysis; assay type: functional, cell-based
MIA PaCa-2 [23] = experiment: Induction of apoptosis in human MIA PaCa-2 cells assessed as upregulation of cleaved caspase-9 expression at 1.25 to 5.0 uM incubated for 48 hrs by Western blotting analysis; assay type: functional, cell-based; settings: dose 1.25-5 µM
MIA PaCa-2 [24] = experiment: Induction of mitochondrial dysfunction in human MIA PaCa-2 cells assessed as decrease in ATP level incubated for 48 hrs by ATP assay kit; assay type: functional, cell-based; settings: dose 2.5-10 µM
MIA PaCa-2 [25] = experiment: Induction of apoptosis in human MIA PaCa-2 cells assessed as increase in Bax/Bcl-2 ratio at 1.25 to 5.0 uM incubated for 48 hrs by Western blotting analysis; assay type: functional, cell-based; settings: dose 1.25-5 µM
MIA PaCa-2 [26] = experiment: Induction of apoptosis in human MIA PaCa-2 cells assessed as early apoptotic cells at 10 uM incubated for 48 hrs by Annexin V-FITC/PI staining based flow cytometric analysis (reference value: 7.3%); assay type: functional
MCF7 [27] = experiment: Induction of mitochondrial apoptosis pathway in human MCF7 cells assessed as downregulation of pro-caspase-3 expression at 1.25 to 5.0 uM incubated for 48 hrs by Western blotting analysis; assay type: functional, cell-based; settings: dose 1.25-5 µM
MCF7 [28] = experiment: Induction of cell cycle arrest in human MCF7 cells assessed as increase in accumulation of cells at G2/M phase at 5 uM incubated for 48 hrs by PI staining based flow cytometric analysis (reference value: 6.7%); assay type: functional
MCF7 [29] = experiment: Induction of apoptosis in human MCF7 cells assessed as early apoptotic cells at 10 uM incubated for 48 hrs by Annexin V-FITC/PI staining based flow cytometric analysis (reference value: 20.2%); assay type: functional
[30] = Toxicity in female BALB/c mouse xenografted with mouse 4T1 cells assessed as morphological change in kidney at 10 mg/kg, ip administered every 2 days by H and E staining based analysis; assay type: organism-based; settings: in vivo, 48 h
MIA PaCa-2 [31] = experiment: Induction of apoptosis in human MIA PaCa-2 cells assessed as upregulation of cleaved caspase-3 expression at 1.25 to 5.0 uM incubated for 48 hrs by Western blotting analysis; assay type: functional, cell-based; settings: dose 1.25-5 µM
PANC-1 = experiment: Antiproliferative activity against human PANC-1 cells assessed as inhibition of cell proliferation incubated for 48 hrs by CCK-8 assay; assay type: functional, cell-based; settings: PANC-1, 48 h
MIA PaCa-2 [32] = experiment: Induction of apoptosis in human MIA PaCa-2 cells assessed as upregulation of cleaved PARP expression at 1.25 to 5.0 uM incubated for 48 hrs by Western blotting analysis; assay type: functional, cell-based; settings: dose 1.25-5 µM

## C=C1C(=O)[C@]23[C@H](OC(=O)c4ccc(N=C=S)cc4)[C@H]1CC[C@H]2[C@@]12CO[C@]3(O)[C@@H](O)[C@@H]1C(C)(C)CC[C@@H]2O
MIA PaCa-2 [1]
  Activity: Active
MCF7 [2]
  IC50: 3.43 µM
MCF7 [3]
  inhibition: Dose-dependent-effect
MIA PaCa-2 [4]
  inhibition: Active
4T1
  Activity: Active
MIA PaCa-2 [5]
  IC50: 2.14 µM
A549
  IC50: 17.8 µM
MCF7 [6]
  inhibition: Active
[7]
  Activity: Non-toxic
[8]
  Activity: Non-toxic
MIA PaCa-2 [9]
  Activity: Active
MIA PaCa-2 [10]
  Activity: 36%
MCF7 [11]
  Activity: Active
MIA PaCa-2 [12]
  inhibition: Active
MIA PaCa-2 [13]
  Activity: 46.9%
MCF7 [14]
  Activity: Active
MCF7 [15]
  Activity: Active
MIA PaCa-2 [16]
  inhibition: Active
[17]
  Activity: Non-toxic
MCF7 [18]
  Activity: Active
MCF7 [19]
  Activity: Active
[20]
  Activity: Non-toxic
MCF7 [21]
  inhibition: Active
MIA PaCa-2 [22]
  Activity: Active
MIA PaCa-2 [23]
  Activity: Active
MIA PaCa-2 [24]
  Activity: Dose-dependent-effect
MIA PaCa-2 [25]
  Activity: Active
MIA PaCa-2 [26]
  Activity: 56.8%
MCF7 [27]
  Activity: Active
MCF7 [28]
  Activity: 11.5%
MCF7 [29]
  Activity: 37%
[30]
  Activity: Non-toxic
MIA PaCa-2 [31]
  Activity: Active
PANC-1
  IC50: 17.7 µM
MIA PaCa-2 [32]
  Activity: Active
